Source: patent US20070149487A1, “Antiviral Compositions and Methods” (priority 2005, published 2007)

Key:
[1] = tested on: human SARS-CoV Toronto-2 strain; assay type: cell-based
[2] = tested on: Vero E6 cells

| Compound | EC50 [1] [µM] | Average Inhibition (%) at 32 μM [1] [%] | CC50 [2] [µM] | toxicity to normal cells in cell viability assays ([2]; at 23 μM) |
| --- | --- | --- | --- | --- |
| CCN1C(=O)c2cccc3c(NC(=O)c4ccc([N+](=O)[O-])s4)ccc1c23 [CS05] | > 100 | 0 | 10 |  |
| O=C(O)c1ccc(N=Cc2c(O)ccc3oc4c(c23)CCCC4)cc1 [CS11] | 23 | 66 | 76 | not toxic |
| Cc1ccc([N+](=O)[O-])cc1N1C(=O)c2ccc(C(=O)O)cc2C1=O [CS12] | > 100 | 13 | > 100 |  |
| CC(=O)Nc1ccc2c(c1)[C@H]1C=CC[C@@H]1[C@H](c1ccc([N+](=O)[O-])cc1)N2 [CS08] | > 100 | 17 | > 100 |  |
| O=C(O)c1ccc(C2Nc3c(Cl)cc(Cl)c(Cl)c3C3C=CCC32)cc1 (stereo not shown) [CS09] | > 100 | 13 | 85 |  |
| O=C(NN=C1C(=O)Nc2ccccc21)NC1CCS(=O)(=O)C1 (racemic) [CS07] | > 100 | 1 | > 100 |  |
| CN1CCC(c2nc(-c3ccc(Cl)cc3)cc(C(F)(F)F)n2)CC1 [CS06] | > 100 | 0 | 95 |  |
| CS(=O)(=O)c1ccc2c(c1)nc(C(F)(F)F)n2C1CCNCC1 [CS02] | > 100 | 0 | > 100 |  |
| CC(=O)Nc1ccc(N2C(=O)CC(N3CC(C)OC(C)C3)C2=O)cc1 (stereo not shown) [CS04] | > 100 | 4 | > 100 |  |
| CN1CCc2c(sc3c2C(=O)NC(c2ccc(O)c(O)c2)N3)C1 (stereo not shown) [CS01] | > 100 | 0 | > 100 |  |
| N=C1C(=Cc2ccc3c(c2)OCO3)C(=O)C=C2SC(C(F)(F)F)=NN12 [CS10] | > 100 | 14 | 67 |  |
| NC(c1cc(C(F)(F)F)cc(C(F)(F)F)c1)c1cc(C(F)(F)F)cc(C(F)(F)F)c1 [CS03] | > 100 | 0 | > 100 |  |
